Laboratory results: article PMC9699089 (Pathogens, 2022)
Where two headings read alike, the source gives them in different places.

Legend:
[1] = tested on: FPf8T (DNA, G4) GGGTTCAGGGTTCAGGGTTCAGGG; test: FRET melting; conditions: 10 mM KCl, 90 mM LiCl; 10 mM lithium cacodylate pH 7.2; 0.2 µM oligonucleotide, 2 µM compound
[2] = tested on: Pf8 (DNA, G4) GGGTTCAGGGTTCAGGGTTCAGGG; test: native ESI-MS; conditions: 1 mM KCl, 100 mM TMAA, 10 µM oligonucleotide, 20 µM ligand
[3] = tested on: F21T (DNA, G4) GGGTTAGGGTTAGGGTTAGGG; test: FRET melting; conditions: 10 mM KCl, 90 mM LiCl; 10 mM lithium cacodylate pH 7.2; 0.2 µM oligonucleotide, 2 µM compound
[4] = tested on: Pf1 (DNA, G4) GGGTTTAGGGTTTAGGGTTTAGGG; test: native ESI-MS; conditions: 1 mM KCl, 100 mM TMAA, 10 µM oligonucleotide; for Kd1: 20 µM ligand
[5] = tested on: FPf1T (DNA, G4) GGGTTTAGGGTTTAGGGTTTAGGG; test: FRET melting; conditions: 10 mM KCl, 90 mM LiCl; 10 mM lithium cacodylate pH 7.2; 0.2 µM oligonucleotide, 2 µM compound
[6] = tested on: FtrypBT (FEBR1T) (DNA, G4) GGGCAGGGGGTGATGGGGAGGAGCCAGGG; test: FRET melting; conditions: 10 mM KCl, 90 mM LiCl; 10 mM lithium cacodylate pH 7.2; 0.2 µM oligonucleotide, 2 µM compound
[7] = tested on: FdxT (DNA, hairpin, hexaethyleneglycol linker between position 10 and 11) TATAGCTATATATAGCTATA; test: FRET melting; conditions: 10 mM KCl, 90 mM LiCl; 10 mM lithium cacodylate pH 7.2; 0.2 µM oligonucleotide, 2 µM compound
[8] = tested on: 24TTG (DNA, G4) TTGGGTTAGGGTTAGGGTTAGGGA; test: native ESI-MS; conditions: 1 mM KCl, 100 mM TMAA, 10 µM oligonucleotide; for Kd1: 20 µM ligand
[9] = tested on: 24nonG4 (DNA, single strand) TGGGATGCGACAGAGAGGACGGGA; test: native ESI-MS; conditions: 1 mM KCl; 100 mM TMAA; 10 µM oligonucleotide; no binding detected at 20 µM ligand
[10] = tested on: DK66 (DNA, duplex) CGCGAATTCGCG; test: native ESI-MS; conditions: 1 mM KCl; 100 mM TMAA; 10 µM oligonucleotide; no binding detected at 20 µM ligand
[11] = tested on: Plasmodium telomeric sequence FPf1T G-quadruplex; test: FRET melting assay, FPf1T; assay type: binding, Plasmodium falciparum; conditions: tested at 1 μM, oligonucleotide 0.2 μM, K+ conditions
[12] = tested on: Plasmodium falciparum CQ-resistant strain W2; test: In vitro antiplasmodial activity, SYBR Green I fluorescence-based method, strain W2; assay type: cell-based; conditions: read-out: P. falciparum Strains IC50 Values W2
Experimental: (§1) The in vitro antiplasmodial activities were tested over concentrations ranging from 39 nM to 40 µM against culture-adapted Plasmodium falciparum reference strains 3D7 and W2. […] These two strains are obtained from the collection of the National Museum of Natural History (Paris, France). The parasites were cultivated in RPMI medium (Sigma Aldrich, Lyon, France) supplemented with 0.5% Albumax I (Life Technologies Corporation, Paisley, UK), hypoxanthine (Sigma Aldrich), and gentamicin (Sigma Aldrich) with human erythrocytes and were incubated at 37 °C in a candle jar, as described previously. The P. falciparum drug susceptibility test was carried out in 96-well flat bottom sterile plates in a final volume of 250 µL. After 48 h incubation period with the drugs, quantities of DNA in treated and control cultures of parasites in human erythrocytes were quantified using the SYBR Green I (Sigma Aldrich) fluorescence-based method. Briefly, after incubation, plates were frozen at -20 °C until use. Plates were then thawed for 2 h at room temperature, and 100 µL of each homogenized culture was transferred to a well of a 96-well flat bottom sterile black plate (Nunc, Inc.) that contained 100 µL of the SYBR Green I lysis buffer (2xSYBR Green, 20 mM Tris base pH 7.5, 5 mM EDTA, 0.008% w/v saponin, 0.08% w/v Triton X-100). […] Plates were incubated for 1 h at room temperature and then read on a fluorescence plate reader (Tecan, Austria) using excitation and emission wavelengths of 485 and 535 nm, respectively.

[13] = tested on: Plasmodium falciparum CQ-sensitive strain 3D7; test: In vitro antiplasmodial activity, SYBR Green I fluorescence-based method, strain 3D7; assay type: cell-based; conditions: read-out: P. falciparum Strains IC50 Values 3D7
Experimental: as §1

[14] = tested on: human telomeric sequence F21T G-quadruplex; test: FRET melting assay, F21T; assay type: binding; conditions: tested at 1 μM, oligonucleotide 0.2 μM, K+ conditions
[15] = tested on: Plasmodium telomeric sequence FPf8T G-quadruplex; test: FRET melting assay, FPf8T; assay type: binding, Plasmodium falciparum; conditions: tested at 1 μM, oligonucleotide 0.2 μM, K+ conditions
[16] = Cytotoxicity evaluation, MTT assay; assay type: cell-based, human; conditions: human
Experimental: (§2) These cells are a commonly used human hepatocarcinoma-derived cell line that has characteristics similar to those of primary hepatocytes. These cells express many hepatocyte-specific metabolic enzymes, thus enabling the cytotoxicity of tested product metabolites to be evaluated. […] Duplicate assays were performed for each sample. Each well was microscopically examined for precipitate formation before the medium was aspirated from the wells. After aspiration, 100 µL of MTT solution (0.5 mg/mL in medium without FCS) were then added to each well. […] The MTT solution was removed, and DMSO (100 µL) was added to dissolve the resulting blue formazan crystals. Plates were shaken vigorously (300 rpm) for 5 min. The absorbance was measured at 570 nm with 630 nm as reference wavelength in a BIO-TEK ELx808 Absorbance Microplate Reader. DMSO was used as blank and doxorubicin (Sigma Aldrich) as positive control. Cell viability was calculated as percentage of control (cells incubated without compound). The CC50 was determined from the dose-response curve using TableCurve 2D V5.0 software (Systat Software, Palo Alto, CA, USA).

[17] = tested on: human telomeric sequence F21T G-quadruplex; test: FRET melting assay, F21T; assay type: binding; conditions: compound 2 μM, oligonucleotide 0.2 μM, K+ conditions
Experimental: (§3) These were performed with dual-labeled oligonucleotides mimicking the Plasmodium telomeric sequences FPf1T [FAM-5′(GGGTTTA)3-GGG3′-TAMRA] and FPf8T [FAM-5′(GGGTTCA)3GGG3′-TAMRA], the Trypanosoma 9 and 11 chromosomic sequence FTrypBT (also named FEBR1T) [FAM-5′[…]3′-TAMRA], the human telomeric sequence F21T [FAM-(GGGTTA)3-GGG3′-TAMRA] and the human duplex sequence FdxT [FAM5′-[…]-hexaethyleneglycol-[…]3′-TAMRA] [27, 31, 47]. The oligonucleotides were pre-folded in 10 mM lithium cacodylate buffer (pH 7.2), with 10 mM KCl and 90 mM LiCl (K^+ condition). The FAM emissions were recorded at 516 nm using a 492-nm excitation wavelength in the absence and presence of a single compound as a function of temperature (25 to 95 °C) in 96-well microplates using a Stratagene MX3000P real-time PCR device at a rate of 1 °C∙min-1. Data were normalized between 0 and 1, and the required temperature for half-denaturation of oligonucleotides corresponding to the emission value of 0.5 was taken as the Tm. Each experiment was performed in duplicate with 0.2 µM of labeled oligonucleotide and 2 µM of compound under K^+ condition. For each compound, three independent experiments were carried out.

[18] = tested on: T. brucei brucei AnTat 1.9; test: In vitro antitrypanosomal activity, Alamar Blue assay; assay type: cell-based, Trypanosoma brucei brucei; conditions: for IC50: Trypanosoma brucei, slender bloodstream trypomastigotes, AnTat 1.9 strain, mean +/- SD of three independent experiments, read-out: Trypanosoma brucei brucei IC50 Values Trypanos Antat 1.9
Experimental: The effects of the tested compounds on the growth of T. brucei brucei were assessed using an Alamar Blue® assay described by Räz et al. T. brucei brucei AnTat 1.9 ([…], Belgium) was cultured in MEM with Earle's salts, supplemented according to the protocol of Baltz et al. […] All doses were tested in duplicate. Appropriate controls treated with solvents 0.9% NaCl or DMSO or with suramin, pentamidine, eflornithine, and fexinidazole (reference drugs purchased from Sigma Aldrich and Fluorochem, UK) were added to each set of experiments. After 69 h incubation period at 37 °C, 10 μL of the viability marker Alamar Blue (Fisher) was added to each well, and the plates were incubated for 5 h. The plates were read in a PerkinElmer ENSPIRE (Germany) microplate reader using an excitation wavelength of 530 nm and an emission wavelength of 590 nm.

[19] = tested on: L. donovani (MHOM/IN/00/DEVI) promastigotes; test: In vitro antileishmanial activity on promastigotes, MTT assay; assay type: cell-based; conditions: Leishmania donovani, 72 h incubation, mean +/- SD of three independent experiments
Experimental: L. donovani (MHOM/IN/00/DEVI) used in this study was provided by the CNR Leishmania (Montpellier, France). The effects of the tested compounds on the growth of L. donovani (MHOM/IN/00/DEVI) promastigotes were assessed by MTT assay. Briefly, promastigotes in log-phase in Schneider’s medium supplemented with 20% fetal calf serum (FCS), 2 mM L-glutamine and antibiotics (100 U/mL penicillin and 100 µg/mL streptomycin), were incubated at an average density of 10^6 parasites/mL in sterile 96-well plates with various concentrations of compounds previously dissolved in DMSO (final concentration less than 0.5% v/v), in duplicate. […] Duplicate assays were performed for each sample. After the 72 h incubation period at 27 °C, parasite metabolic activity was determined. Each well was microscopically examined for precipitate formation. To each well was added 10 µL of 10 mg/mL MTT [3-(4,5-dimethylthiazol-2-yl)-2,5-diphenyltetrazolium bromide)] solution followed by 4 h incubation time. The enzyme reaction was stopped by addition of 100 µL of 50% isopropanol/10% sodium dodecyl sulfate. Plates were vigorously shaken (300 rpm) for 10 min, and the absorbance was measured at 570 nm with 630 nm as reference wavelength in a BIOTEK ELx808 Absorbance Microplate Reader (Agilent Technologies, Les Ulis, France). […] IC50 of the parasite’s growth (half maximal inhibitory concentration or IC50 values) were then calculated from the obtained experimental results using a previously described regression program. IC50 values were calculated from three independent experiments.

[20] = tested on: Plasmodium telomeric sequence FPf8T G-quadruplex; test: FRET melting assay, FPf8T; assay type: binding, Plasmodium falciparum; conditions: compound 2 μM, oligonucleotide 0.2 μM, K+ conditions
Experimental: as §3

[21] = tested on: human duplex sequence FdxT; test: FRET melting assay, duplex control FdxT; assay type: binding; conditions: compound 2 μM, oligonucleotide 0.2 μM, K+ conditions
Experimental: as §3

[22] = tested on: Plasmodium telomeric sequence FPf1T G-quadruplex; test: FRET melting assay, FPf1T; assay type: binding, Plasmodium falciparum; conditions: compound 2 μM, oligonucleotide 0.2 μM, K+ conditions
Experimental: as §3

[23] = tested on: Trypanosoma 9 and 11 chromosomic sequence FTrypBT (FEBR1T) G-quadruplex; test: FRET melting assay, FtrypBT; assay type: binding, Trypanosoma brucei brucei; conditions: compound 2 μM, oligonucleotide 0.2 μM, K+ conditions
Experimental: as §3

human HepG2 cells = test: Cytotoxicity evaluation, MTT assay; assay type: cell-based; conditions: HepG2 cells; 72 h; mean +/- SD of three independent experiments
Experimental: as §2

[24] = no binding detected at 20 µM ligand
[25] = CQ-resistant strain W2, 48 h incubation, mean of three independent experiments
[26] = CQ-sensitive strain 3D7, 48 h incubation, mean of three independent experiments

## CN(C)CCCCCNCc1cc(-c2ccccc2)c2ccc3c(-c4ccccc4)cc(CNCCCCCN(C)C)nc3c2n1
[1]
  ΔTm: 20.5 ± 0.2 °C
[2]; site 1 of 2 (Kd2 16 µM)
  Kd1: 3 µM
[3]
  ΔTm: 18.1 ± 0.9 °C
[4]; site 1 of 2 (Kd2 24 µM)
  Kd1: 8 µM
[5]
  ΔTm: 18.8 ± 0.2 °C
[6]
  ΔTm: 14.7 ± 0.7 °C
[7]
  ΔTm: 1.8 ± 0.2 °C
[8]; site 1 of 2 (Kd2 62 µM)
  Kd1: 38 µM

## CN(C)CCCCNCc1cc(-c2ccccc2)c2ccc3c(-c4ccccc4)cc(CNCCCCN(C)C)nc3c2n1
[2]; site 1 of 2 (Kd2 50 µM)
  Kd1: 3 µM
[8]; site 1 of 2 (Kd2 28 µM)
  Kd1: 44 µM

## c1ccc(-c2cc(CNCCCN3CCCC3)nc3c2ccc2c(-c4ccccc4)cc(CNCCCN4CCCC4)nc23)cc1
[2]; site 1 of 2 (Kd2 59 µM)
  Kd1: 2 µM
[4]; site 1 of 2 (Kd2 37 µM)
  Kd1: 10 µM
[7]
  ΔTm: 0.7 ± 0.2 °C
[8]; site 1 of 2 (Kd2 18 µM)
  Kd1: 34 µM

## c1ccc(-c2cc(CNCCc3ccccn3)nc3c2ccc2c(-c4ccccc4)cc(CNCCc4ccccn4)nc23)cc1
[1]
  ΔTm: 1.0 ± 0.2 °C
[2]
  Kd1: 83 µM
[3]
  ΔTm: 1.0 ± 0.5 °C
[9]
  binding: no
[10]
  binding: no
[4]; [24]
  binding: no
[5]
  ΔTm: 1.3 ± 0.2 °C
[6]
  ΔTm: 1.8 ± 0.6 °C
[8]; [24]
  binding: no

## CCN(CC)CCCC(C)Nc1ccnc2cc(Cl)ccc12 (centres unmarked) [CQ, chloroquine]
[11]
  ΔTm FPf1T: 1.9 °C
[12]; W2, 48 h
  IC50: 0.4 ± 0.04 µM
[13]; 3D7, 48 h
  IC50: 0.11 ± 0.01 µM
[14]
  ΔTm F21T: 2.4 °C
[15]
  ΔTm FPf8T: 2.4 °C

## c1ccc(-c2cc(CNCCCc3ccncc3)nc3c2ccc2c(-c4ccccc4)cc(CNCCCc4ccncc4)nc23)cc1 [Compound 1p]
[16]
  CC50 at 72 h: 3.04 ± 0.19 µM
[17]
  ΔTm F21T: 3.6 °C
[12]; [25]
  IC50: 0.145 ± 0.04 µM
[18]
  IC50: 0.65 ± 0.05 µM
[19]
  IC50: > 12.5 µM
[13]; [26]
  IC50: 1.02 ± 0.35 µM
[20]
  ΔTm FPf8T: 3.9 °C
[21]
  ΔTm FdxT: −1.1 °C
[22]
  ΔTm FPf1T: 3.5 °C
[23]
  ΔTm FtrypBT: 3.7 °C

## OC(c1cc(C(F)(F)F)nc2c(C(F)(F)F)cccc12)C1CCCCN1 (centres unmarked) [MQ, mefloquine]
[11]
  ΔTm FPf1T: 3.1 °C
[12]; [25]
  IC50: 0.016 ± 0.002 µM
[13]; [26]
  IC50: 0.06 ± 0.003 µM
[14]
  ΔTm F21T: 2.6 °C
[15]
  ΔTm FPf8T: 6.6 °C

## N=C(N)c1ccc(OCCCCCOc2ccc(C(=N)N)cc2)cc1 [Pentamidine, reference compound]
Human HepG2 cells
  CC50: 2.3 ± 0.5 µM
[18]; SI = CC50 HepG2 / IC50 Trypanosoma brucei brucei
  Selectivity Index HepG2/Tryp.: 11,500
[18]
  IC50: 0.0002 ± 6e-05 µM
[19]
  IC50: 5.5 ± 0.8 µM
